Read-outs that look alike come from different tables or passages of the source. Values belong to the compound of their own block, whether it stands above or below them.
Assays:
[1] = biological target: BRD4 adjoined to nanoluciferase (Nluc) (Homo sapiens (Human), UniProt O60885+Q96SW2); test: BRD4 Dual Luciferase Assay; type: cell-based; conditions: concentration at Emax
Protocol: Transduced cells were selected with puromycin and expanded. […] Cells were incubated with compound for 4 hours at 37° C., 5% CO2 and then allowed to cool to room temperature. To each plate was added 25 μL of Fluc buffer (200 mM Tris, 15 mM MgSO4, 100 uM EDTA, 1 mM DTT, 1 mM ATP, 200 uM Coenzyme A, 400 uM D-Luciferin, 0.1% Trition X-100).

[2] = biological target: CRBN-DDB1/BRD4 (Homo sapiens (Human), UniProt O60885+Q96SW2); test: CRBN-DDB1/BRD4 Dimerization Assay; type: binding; conditions: for Dimer Amplitude / Dimer Mean: Gaussian fit of dimerization signal; for Dimer SD: Gaussian fit parameter of dimerization signal;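 as to all read-outs here: AlphaScreen proximity signal between GST-tagged BRD4 and CRBN-DDB1 with glutathione donor and nickel chelate acceptor beads, read after 1 hr compound incubation at room temperature, values from Gaussian curve fit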
[3] = biological target: fusion of mutant FKBP12 to nanoluciferase (Homo sapiens (Human), UniProt P62942+Q96SW2, F36V); test: FKBP Dual Luciferase Assay (mutant FKBP12, 36V); type: cell-based; conditions: for Dmax: read-out: Max Degradation (dual luciferase, %) FKBP 36V;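 as to all read-outs here: cells exposed to rising degrader concentrations, FKBP12 fusion level read as NLuc/FLuc signal ratio, lower ratio means more degradation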
Protocol: The cells were treated with increasing concentrations of various dFKBPs for 4 hours. The amount of NLuc and FLuc was measured, and the abundance of the FKBP12-HA-NLuc was quantified by calculating the signal ratio of NLuc/FLuc.

[4] = biological target: IKZF1 adjoined to nanoluciferase (Nluc) (Homo sapiens (Human), UniProt Q13422); test: IKZF1 Dual Luciferase Assay; type: cell-based; conditions: 4 hours; read-out: Nluc/Fluc IKZF1 IC50
Protocol: Transduced cells were selected with puromycin at 2 μg/mL and expanded. […] Cells were incubated with compound for 4 hours at 37° C., 5% CO2 and then allowed to cool to room temperature. To each plate was added 25 μL of Fluc buffer (200 mM Tris, 15 mM MgSO4, 100 uM EDTA, 1 mM DTT, 1 mM ATP, 200 uM Coenzyme A, 400 uM D-Luciferin, 0.1% Trition X-100).

[5] = FKBP 36V, 4 hours, read-out: DC50 (nM) FKBP 36V

Conc@Emax [1]: 15.81 µM
Dimer Amplitude [2]: 1722
Dimer Mean [2]: −7.069
Dimer SD [2]: 1.225
SMILES: Cc1c(CC#N)sc2c1C(c1ccc(Cl)cc1)=N[C@@H](CC(=O)NCCCCNC(=O)COc1cccc3c1C(=O)N(C1CCC(=O)NC1=O)C3=O)c1nnc(C)n1-2 (stereo partly drawn) [dBET19]

Conc@Emax [1]: 5 µM
Dimer Amplitude [2]: 31348
Dimer Mean [2]: −7.489
Dimer SD [2]: 0.6531
SMILES: Cc1sc2c(c1C)C(c1ccc(Cl)cc1)=N[C@@H](CC(=O)NCCOCCOCCNC(=O)COc1cccc3c1C(=O)N(C1CCC(=O)NC1=O)C3=O)c1nnc(C)n1-2 (stereo partly drawn) [dBET24]

DC50 [3, 5]: 6.4 nM
Dmax ([3]; FKBP 36V, 4 hours): 80%
SMILES: CC[C@H](C(=O)N1CCCC[C@H]1C(=O)OC(CCc1ccc(OC)c(OC)c1)c1cccc(OCC(=O)NCCCCOc2cccc3c2C(=O)N(C2CCC(=O)NC2=O)C3=O)c1)c1cc(OC)c(OC)c(OC)c1 (stereo partly drawn) [dFKBP*-18]

DC50 [4]: 7.61 µM
SMILES: Cc1nc2ccccc2c(=O)n1C1CCC(=O)NC1=O [Compound D-9, 3-(2-methyl-4-oxoquinazolin-3(4H)-yl)piperidine-2,6-dione]

Dimer Amplitude [2]: 20549
Dimer Mean [2]: −7.428
Dimer SD [2]: 0.7005
SMILES: CC[C@@H]1C(=O)N(C)c2cnc(Nc3ccc(C(=O)NCCCCNC(=O)COc4cccc5c4C(=O)N(C4CCC(=O)NC4=O)C5=O)cc3OC)nc2N1C1CCCC1 (stereo partly drawn) [dBET2]

DC50 [4]: > 50 µM
SMILES: O=C1CCC(N2C(=O)c3ccc(C(=O)O)cc3C2=O)C(=O)N1 [Compound D-13, 2-(2,6-dioxopiperidin-3-yl)-1,3-dioxoisoindoline-5-carboxylic acid]

DC50 [4]: 1.02 µM
SMILES: CC(=O)NCc1cccc2c1C(=O)N(C1CCC(=O)NC1=O)C2=O [Compound D-23, N-((2-(2,6-dioxopiperidin-3-yl)-1,3-dioxoisoindolin-4-yl)methyl)acetamide]

DC50 [4]: > 50 µM
SMILES: O=C1CCC(N2C(=O)c3ccc(F)cc3C2=O)C(=O)N1 [Compound D-24, 2-(2,6-dioxopiperidin-3-yl)-5-fluoroisoindoline-1,3-dione]

DC50 [4]: > 50 µM
SMILES: O=C1CCC(N2C(=O)c3ccc(NCc4ccccc4)cc3C2=O)C(=O)N1 [Compound D-25, 5-(benzylamino)-2-(2,6-dioxopiperidin-3-yl)isoindoline-1,3-dione]

DC50 [3, 5]: 28 nM
Dmax ([3]; FKBP 36V, 4 hours): 66%
SMILES: CC[C@H](C(=O)N1CCCC[C@H]1C(=O)O[C@H](CCc1ccc(OC)c(OC)c1)c1cccc(OCC(=O)NCCOCCOCCOc2cccc3c2C(=O)N(C2CCC(=O)NC2=O)C3=O)c1)c1cc(OC)c(OC)c(OC)c1 (stereo partly drawn) [dFKBP*-15]

Dimer Amplitude [2]: 16889
Dimer Mean [2]: −7.496
Dimer SD [2]: 0.5198
SMILES: Cc1sc2c(c1C)C(c1ccc(Cl)cc1)=N[C@@H](CC(=O)NCCCOCCOCCOCCCNC(=O)COc1cccc3c1C(=O)N(C1CCC(=O)NC1=O)C3=O)c1nnc(C)n1-2 (stereo partly drawn) [dBET9]

DC50 [4]: 0.111 µM
SMILES: Cc1cccc2c1C(=O)N(C1CCC(=O)NC1=O)C2=O [Compound D-19, 2-(2,6-dioxopiperidin-3-yl)-4-methylisoindoline-1,3-dione]

Dimer Amplitude [2]: 758.9
Dimer Mean [2]: −6.306
Dimer SD [2]: 1.327
SMILES: Cc1sc2c(c1C)C(c1ccc(Cl)cc1)=N[C@@H](CC(=O)NCCCCCCCCOc1cccc3c1C(=O)N(C1CCC(=O)NC1=O)C3=O)c1nnc(C)n1-2 (stereo partly drawn) [dBET21]

Conc@Emax [1]: 15.81 µM
Dimer Amplitude [2]: 32323
Dimer Mean [2]: −7.374
Dimer SD [2]: 0.6046
SMILES: Cc1c(C(=O)NCCCCCCCCNC(=O)COc2cccc3c2C(=O)N(C2CCC(=O)NC2=O)C3=O)sc2c1C(c1ccc(Cl)cc1)=N[C@@H](CC(=O)NCCCN1CCN(C)CC1)c1nnc(C)n1-2 (stereo partly drawn) [dBET31]

DC50 [3, 5]: 99 nM
Dmax ([3]; FKBP 36V, 4 hours): 38%
SMILES: CC[C@H](C(=O)N1CCCC[C@H]1C(=O)OC(CCc1ccc(OC)c(OC)c1)c1cccc(OCC(=O)NCCCCC(=O)Nc2cccc3c2C(=O)N(C2CCC(=O)NC2=O)C3=O)c1)c1cc(OC)c(OC)c(OC)c1 (stereo partly drawn) [dFKBP*-16]

Conc@Emax [1]: 0.5 µM
Dimer Amplitude [2]: 16389
Dimer Mean [2]: −7.497
Dimer SD [2]: 0.6763
SMILES: Cc1sc2c(c1C)C(c1ccc(Cl)cc1)=N[C@@H](CC(=O)NCCNC(=O)COc1cccc3c1C(=O)N(C1CCC(=O)NC1=O)C3=O)c1nnc(C)n1-2 (stereo partly drawn) [dBET3]

DC50 [3, 5]: 15 nM
Dmax ([3]; FKBP 36V, 4 hours): 91%
SMILES: CC[C@H](C(=O)N1CCCC[C@H]1C(=O)OC(CCc1ccc(OC)c(OC)c1)c1cccc(OCC(=O)NCc2ccc(CNC(=O)COc3cccc4c3C(=O)N(C3CCC(=O)NC3=O)C4=O)cc2)c1)c1cc(OC)c(OC)c(OC)c1 (stereo partly drawn) [dFKBP*-21]

Conc@Emax [1]: 1.581 µM
Dimer Amplitude [2]: 18644
Dimer Mean [2]: −6.277
Dimer SD [2]: 0.4127
SMILES: Cc1sc2c(c1C)C(c1ccc(Cl)cc1)=N[C@@H](CC(=O)NCCCCCCNC(=O)COc1cccc3c1C(=O)N(C1CCC(=O)NC1=O)C3=O)c1nnc(C)n1-2 (stereo partly drawn) [dBET5]

DC50 [4]: > 50 µM
SMILES: O=C1CCC(N2C(=O)c3cccc(F)c3C2=O)C(=O)N1 [Compound D-14, 2-(2,6-dioxopiperidin-3-yl)-4-fluoroisoindoline-1,3-dione]

DC50 [3, 5]: 1.2 nM
Dmax ([3]; FKBP 36V, 4 hours): 83%
SMILES: CC[C@H](C(=O)N1CCCC[C@H]1C(=O)OC(CCc1ccc(OC)c(OC)c1)c1cccc(OCC(=O)NCCCCCCOc2cccc3c2C(=O)N(C2CCC(=O)NC2=O)C3=O)c1)c1cc(OC)c(OC)c(OC)c1 (stereo partly drawn) [dFKBP*-13]

DC50 [4]: 0.14 µM
SMILES: CCN(CC)c1cccc2c1C(=O)N(C1CCC(=O)NC1=O)C2=O [Compound D-21, 4-(diethylamino)-2-(2,6-dioxopiperidin-3-yl)isoindoline-1,3-dione]

Conc@Emax [1]: 0.5 µM
Dimer Amplitude [2]: 11278
Dimer Mean [2]: −7.202
Dimer SD [2]: 0.7693
SMILES: Cc1sc2c(c1C)C(c1ccc(Cl)cc1)=N[C@@H](CC(=O)NCCOCCOc1cccc3c1C(=O)N(C1CCC(=O)NC1=O)C3=O)c1nnc(C)n1-2 (stereo partly drawn) [dBET27]

DC50 [4]: > 50 µM
SMILES: CC(C)Nc1ccc2c(c1)C(=O)N(C1CCC(=O)NC1=O)C2=O [Compound D-26, 2-(2,6-dioxopiperidin-3-yl)-5-(isopropylamino)isoindoline-1,3-dione]

SMILES: CC[C@@H]1C(=O)N(C)c2cnc(Nc3ccc(C(=O)NCCCCCCNC(=O)COc4cccc5c4C(=O)N(C4CCC(=O)NC4=O)C5=O)cc3OC)nc2N1C1CCCC1 (stereo partly drawn) [dBET7]
Conc@Emax [1]: 0.5 µM
Dimer Amplitude [2]: 31800
Dimer Mean [2]: −6.18
Dimer SD [2]: 0.4549

DC50 [4]: > 50 µM
SMILES: CCN(CC)c1ccc2c(c1)C(=O)N(C1CCC(=O)NC1=O)C2=O [Compound D-27, 5-(diethylamino)-2-(2,6-dioxopiperidin-3-yl)isoindoline-1,3-dione]

DC50 [3, 5]: 57 nM
Dmax ([3]; FKBP 36V, 4 hours): 85%
SMILES: CC[C@H](C(=O)N1CCCC[C@H]1C(=O)OC(CCc1ccc(OC)c(OC)c1)c1cccc(OCC(=O)NCCCCCCCCCCOc2cccc3c2C(=O)N(C2CCC(=O)NC2=O)C3=O)c1)c1cc(OC)c(OC)c(OC)c1 (stereo partly drawn) [dFKBP*-14]

DC50 [4]: 0.444 µM
SMILES: CC(=O)Nc1cccc2c1C(=O)N(C1CCC(=O)NC1=O)C2=O [Compound D-3, N-(2-(2,6-dioxopiperidin-3-yl)-1,3-dioxoisoindolin-4-yl)acetamide]

DC50 [4]: > 50 µM
SMILES: CC(=O)Nc1ccc2c(c1)C(=O)N(C1CCC(=O)NC1=O)C2=O [Compound D-5, N-(2-(2,6-dioxopiperidin-3-yl)-1,3-dioxoisoindolin-5-yl)acetamide]

DC50 [3, 5]: 17 nM
Dmax ([3]; FKBP 36V, 4 hours): 75.7%
SMILES: CC[C@H](C(=O)N1CCCC[C@H]1C(=O)OC(CCc1ccc(OC)c(OC)c1)c1cccc(OCC(=O)NCCCCCCCC(=O)Nc2cccc3c2C(=O)N(C2CCC(=O)NC2=O)C3=O)c1)c1cc(OC)c(OC)c(OC)c1 (stereo partly drawn) [dFKBP*-20]

DC50 [4]: > 50 µM
SMILES: O=C1CCC(N2C(=O)c3cccc(O)c3C2=O)C(=O)N1 [Compound D-1, 2-(2,6-dioxopiperidin-3-yl)-4-hydroxyisoindoline-1,3-dione]

DC50 [4]: 0.534 µM
SMILES: O=C1CCC(N2C(=O)c3cccc(CNC(=O)C4CC4)c3C2=O)C(=O)N1 [Compound D-22, N-((2-(2,6-dioxopiperidin-3-yl)-1,3-dioxoisoindolin-4-yl)methyl)cyclopropanecarboxamide]

DC50 [4]: > 50 µM
SMILES: O=C1CCC(N2C(=O)c3ccc(C(=O)NCc4ccccc4)cc3C2=O)C(=O)N1 [Compound D-15, N-benzyl-2-(2,6-dioxopiperidin-3-yl)-1,3-dioxoisoindoline-5-carboxamide]

DC50 [4]: > 50 µM
SMILES: O=C1CCC(N2C(=O)c3cccc([N+](=O)[O-])c3C2=O)C(=O)N1 [Compound D-10, 2-(2,6-dioxopiperidin-3-yl)-4-nitroisoindoline-1,3-dione]

DC50 [3, 5]: 69 nM
Dmax ([3]; FKBP 36V, 4 hours): 64%
SMILES: CC[C@H](C(=O)N1CCCC[C@H]1C(=O)OC(CCc1ccc(OC)c(OC)c1)c1cccc(OCC(=O)NCCCOCCCNC(=O)COc2cccc3c2C(=O)N(C2CCC(=O)NC2=O)C3=O)c1)c1cc(OC)c(OC)c(OC)c1 (stereo partly drawn) [dFKBP*-17]

DC50 [4]: 0.0239 µM
SMILES: O=C1CCC(N2C(=O)c3cccc(NCc4ccccc4)c3C2=O)C(=O)N1 [Compound D-16, 4-(benzylamino)-2-(2,6-dioxopiperidin-3-yl)isoindoline-1,3-dione]

DC50 [3, 5]: 1.7 nM
Dmax ([3]; FKBP 36V, 4 hours): 94%
SMILES: CC[C@H](C(=O)N1CCCC[C@H]1C(=O)O[C@H](CCc1ccc(OC)c(OC)c1)c1cccc(OCC(=O)NCCOCCOc2cccc3c2C(=O)N(C2CCC(=O)NC2=O)C3=O)c1)c1cc(OC)c(OC)c(OC)c1 (stereo partly drawn) [dFKBP*-19]

SMILES: O=C1CCC(N2C(=O)c3ccc([N+](=O)[O-])cc3C2=O)C(=O)N1 [Compound D-2, 2-(2,6-dioxopiperidin-3-yl)-5-nitroisoindoline-1,3-dione]
DC50 [4]: > 50 µM

SMILES: CC[C@H](C(=O)N1CCCC[C@H]1C(=O)O[C@H](CCc1ccc(OC)c(OC)c1)c1cccc(OCC(=O)NCCCCCCCCNC(=O)COc2cccc3c2C(=O)N(C2CCC(=O)NC2=O)C3=O)c1)c1cc(OC)c(OC)c(OC)c1 (stereo partly drawn) [c1FKBP*-9]
DC50 ([3]; read-out: DC50 (nM) FKBP 36V, 4 hours): 3.9 nM

DC50 [4]: > 50 µM
SMILES: Cc1nc2ccccc2c(=O)n1C1CC(=O)NC1=O [Compound D-11, 3-(2-methyl-4-oxoquinazolin-3(4H)-yl)pyrrolidine-2,5-dione]
